In data set [1] the test system is T1, μ-calpain.
T1 construct: μ-calpain (derived from human red blood cells; available from Cosmo Bio Co. Ltd.); purchased Cosmo Bio Co. Ltd; host or cells: purified from human red blood cells
In kind it is biochemical. As to conditions: μ-calpain derived from human red blood cells; 30° C., 60 minutes; read-out: Enzyme inhibitory activity μ-calpain (IC50). Here is the method:
(1) Measurement of Inhibitory Activity Against μ-Calpain and m-Calpain
The inhibitory activity against μ-calpain and m-calpain was assayed according to the method described in Anal. Biochem. 1993, vol. 208, p. 387-392. That is, to 2.5 μL of a DMSO solution containing a varying concentration of the test sample in a 96-well plate was added 200 μL of a reaction solution containing 0.5 mg/mL casein, 50 mM Tris-HCl buffer (pH 7.4), 20 mM dithiothreitol and 1.0 nmol μ-calpain (derived from human red blood cells; available from Cosmo Bio Co. Ltd.) or m-calpain (derived from porcine kidney; available from Cosmo Bio Co. Ltd.). After 20 mM aqueous calcium chloride (50 μL) was added thereto, the mixture was incubated at 30° C. for 60 minutes. Then, 100 μL of the reaction solution was transferred to another 96-well plate, and purified water (50 μL) and 50% aqueous solution (100 μL) of Protein Assay Dye Reagent (available from Bio-Rad Laboratories, Inc.; catalogue No. 500-600) were added thereto. The reaction mixture was allowed to stand at room temperature for 15 minutes, and its absorbance was measured at 595 nm.
The absorbance of a reaction mixture prepared in the same manner as mentioned above, except that a DMSO solution contained no sample, was used as a control value, and that of a reaction mixture prepared in the same manner as mentioned above, except that 1 mM aqueous EDTA solution (50 μL) was used in place of 20 mM aqueous calcium chloride, was used as a blank value. […] Inhibition rate (%)={1−(measured value minus blank value)/(control value minus blank value)}×100

Data set [2] is described as follows: Solubility in 10 mM phosphate buffer (pH 7.0). In kind it is physicochemical. Here is the method:
Solubility of the compounds of the present invention in 10 mM phosphate buffer (pH 7.0) was measured.

Data set [3] can be described thus: Partition coefficient using IAM column. In kind it is physicochemical. As to conditions: IAM Fast Screening Mini-Column; Dulbecco's phosphate buffer (pH 7.4). Here is the method:
Analysis by HPLC system was carried out under the conditions given below, and retention time of each substance was measured. • Column: IAM Fast Screening Mini-Column (Regis Technologies, Inc.) • Mobile phase: Dulbecco's phosphate buffer (pH 7.4) • Detection wavelength: 250 nm • Column temperature: room temperature • Injection amount: 5.0 to 20 μL • Flow rate: 0.5 mL/min • Sample solution: 5 mg of sample was dissolved in 100 μL of acetonitrile, and a mobile phase was added to make 1 mL of a sample solution.
The measured value was inserted into the following formula, and the partition coefficient (K′ IAM) was calculated. k′IAM=(tR−t0)/t0 t0: retention time of the peak derived from acetonitrile tR: retention time of the peak of the sample

Data set [4] can be described thus: Transportation rate into blood after oral administration. The class given is in vivo, Macaca fascicularis (crab-eating monkey). As to conditions: cynomolgus monkey, 10 mg/kg, Macaca fascicularis, plasma; for AUC(0-t): read-out: AUC 0→4 hr. Here is the method:
The compound of the present invention was administered orally to Macaca fascicularis (crab-eating monkey) at a dose of 10 mg/kg. The blood was collected with the lapse of time, and the concentration of each compound in the plasma was measured.

Converted amounts (≈) assume the structure as drawn.

With `COCCOCCOC(=O)N[C@@H](CC(C)C)C(=O)NC(Cc1ccccc1)C(=O)C(N)=O` (mixture of isomers) [Compound 23, ((1S)-1-((((1RS)-3-amino-1-benzyl-2,3-dioxopropyl)amino)carbonyl)-3-methylbutyl)carbamic acid 5-methoxy-3-oxapentyl ester], the concentration for half-maximal inhibition (IC50) in data set [1] is 190 nM.

Regarding `CCNC(=O)C(=O)[C@H](Cc1ccccc1)NC(=O)[C@H](CC(C)C)NC(=O)OCCOC` [Compound 1, ((1S)-1-((((1S)-1-Benzyl-2,3-dioxo-3-(ethylamino)propyl)amino)carbonyl)-3-methylbutyl)carbamic acid 2-methoxyethyl ester], the 50% inhibitory concentration (IC50) in data set [1] turned out to be 170 nM.

Regarding `CCNC(=O)C(=O)[C@H](Cc1ccccc1)NC(=O)[C@H](CC(C)C)NC(=O)O[C@H]1CCOC1` [Compound 2, ((1S)-1-((((1S)-1-Benzyl-2,3-dioxo-3-(ethylamino)propyl)amino)carbonyl)-3-methylbutyl)carbamic acid (3S)-tetrahydrofuran-3-yl ester], the IC50 in data set [1] was 150 nM.

`CCNC(=O)C(=O)[C@H](Cc1ccccc1)NC(=O)[C@H](CC(C)C)NC(=O)OC1CCOCC1` [Compound 3, ((1S)-1-((((1S)-1-Benzyl-2,3-dioxo-3-(ethylamino)propyl)amino)carbonyl)-3-methylbutyl)carbamic acid tetrahydro-4H-pyran-4-yl ester]: the IC50 in data set [1] was 250 nM.

Turning to `CC(C)C[C@H](NC(=O)O[C@H]1CCOC1)C(=O)N[C@@H](Cc1ccccc1)C(=O)C(=O)NC1CC1` [Compound 5, ((1S)-1-((((1S)-1-Benzyl-3-(cyclopropylamino)-2,3-dioxo-propyl)amino)carbonyl)-3-methylbutyl)carbamic acid (3S)-tetrahydrofuran-3-yl ester], the IC50 in data set [1] is 90 nM.

Take `CC(C)C[C@H](NC(=O)OC1CCOCC1)C(=O)N[C@@H](Cc1ccccc1)C(=O)C(=O)NC1CC1` [Compound 6, ((1S)-1-((((1S)-1-Benzyl-3-cyclopropylamino-2,3-dioxo-propyl)amino)carbonyl)-3-methylbutyl)carbamic acid tetrahydro-4H-pyran-4-yl ester]: the IC50 in data set [1] was found to be 120 nM.

Take `CCCNC(=O)C(=O)[C@H](Cc1ccccc1)NC(=O)[C@H](CC(C)C)NC(=O)OCCOC` [Compound 7]: the IC50 in data set [1] amounted to 100 nM.

Regarding `COCCOC(=O)N[C@@H](CC(C)C)C(=O)N[C@@H](Cc1ccccc1)C(=O)C(=O)NC1CCC1` [Compound 8, ((1S)-1-((((1S)-1-Benzyl-2,3-dioxo-3-(cyclobutylamino)propyl)amino)carbonyl)-3-methylbutyl)carbamic acid 2-methoxyethyl ester], the IC50 in data set [1] came out at 170 nM.

Consider `CCCCNC(=O)C(=O)[C@H](Cc1ccccc1)NC(=O)[C@H](CC(C)C)NC(=O)OCCOC` [Compound 9, ((1S)-1-((((1S)-1-Benzyl-3-butylamino-2,3-dioxo-propyl)amino)carbonyl)-3-methylbutyl)carbamic acid 2-methoxyethyl ester], for which the IC50 in data set [1] is 100 nM.

Regarding `COCCOC(=O)N[C@@H](CC(C)C)C(=O)N[C@@H](Cc1ccccc1)C(=O)C(=O)NCC(F)(F)F` [Compound 10, ((1S)-1-((((1S)-1-Benzyl-2,3-dioxo-3-(2,2,2-trifluoroethylamino)propyl)amino)carbonyl)-3-methylbutyl)carbamic acid 2-methoxyethyl ester], the IC50 in data set [1] amounted to 450 nM.

For the compound `COCCOC(=O)N[C@@H](CC(C)C)C(=O)N[C@@H](Cc1ccccc1)C(=O)C(=O)NC1Cc2ccccc2C1` [Compound 11, ((1S)-1-((((1S)-1-Benzyl-2,3-dioxo-3-(2-indanylamino)propyl)amino)carbonyl)-3-methylbutyl)carbamic acid 2-methoxyethyl ester], in data set [1], the IC50 was determined as 170 nM.

`COCCNC(=O)C(=O)[C@H](Cc1ccccc1)NC(=O)[C@H](CC(C)C)NC(=O)OCCOC` [Compound 12, ((1S)-1-((((1S)-1-Benzyl-2,3-dioxo-3-(2-methoxyethylamino)propyl)amino)carbonyl)-3-methylbutyl)carbamic acid 2-methoxyethyl ester]: the IC50 in data set [1] worked out at 180 nM.

Regarding `CCNC(=O)C(=O)[C@H](CCc1ccccc1)NC(=O)[C@H](CC(C)C)NC(=O)OCCOC` [Compound 13, ((1S)-1-((((1S)-2,3-Dioxo-3-ethylamino-1-(phenylethyl)propyl)amino)carbonyl)-3-methylbutyl)carbamic acid 2-methoxyethyl ester], in data set [1], the IC50 worked out at 300 nM.

In the case of `CCNC(=O)C(=O)[C@H](CCc1ccccc1)NC(=O)[C@H](CC(C)C)NC(=O)O[C@H]1CCOC1` [Compound 14, ((1S)-1-((((1S)-2,3-Dioxo-3-ethylamino-1-(phenylethyl)propyl)amino)carbonyl)-3-methylbutyl)carbamic acid (3S)-tetrahydrofuran-3-yl ester], the IC50 in data set [1] stood at 160 nM.

Regarding `COCCOC(=O)N[C@@H](CC(C)C)C(=O)N[C@@H](CCc1ccccc1)C(=O)C(=O)NC1CC1` [Compound 15, ((1S)-1-((((1S)-2,3-Dioxo-3-cyclopropylamino-1-(phenylethyl)propyl)amino)carbonyl)-3-methylbutyl)carbamic acid 2-methoxyethyl ester], in data set [1], the IC50 was determined as 180 nM.

As to `CC(C)C[C@H](NC(=O)O[C@H]1CCOC1)C(=O)N[C@@H](CCc1ccccc1)C(=O)C(=O)NC1CC1` [Compound 16, ((1S)-1-((((1S)-2,3-Dioxo-3-cyclopropylamino-1-(phenylethyl)propyl)amino)carbonyl)-3-methylbutyl)carbamic acid (3S)-tetrahydro-furan-3-yl ester], the half-inhibitory concentration (IC50) in data set [1] came out at 140 nM.

`COCCOCCOCCOC(=O)N[C@@H](CC(C)C)C(=O)N[C@@H](Cc1ccccc1)C(=O)C(=O)NC1CC1` [Compound 18, ((1S)-1-((((1S)-1-Benzyl-2,3-dioxo-3-(cyclopropylamino)propyl)amino)carbonyl)-3-methylbutyl)carbamic acid 8-methoxy-3,6-dioxaoctyl ester] yielded a Solubility in data set [2] of 5400 µg/mL (≈ 10.1 mM). Also, in data set [3], the “IAM (Log k′IAM)” value is recorded as 1.38. Also, in data set [4], the Cmax came to 660 nM and the AUC(0-t) was 1.6 µM·h.

`COCCOCCOCCOCCOC(=O)N[C@@H](CC(C)C)C(=O)N[C@@H](Cc1ccccc1)C(=O)C(=O)NC1CC1` [Compound 19, ((1S)-1-((((1S)-1-Benzyl-2,3-dioxo-3-(cyclopropylamino)propyl)amino)carbonyl)-3-methylbutyl)carbamic acid 11-methoxy-3,6,9-trioxaundecanyl ester]: the Solubility in data set [2] was 8300 µg/mL (≈ 14.3 mM). Also, the “IAM (Log k′IAM)” value in data set [3] came out at 1.44. In data set [4], the concentration peaked (Cmax) at 900 nM and the AUC(0-t) was 1.6 µM·h.

For `COCCOCCOCCOCCOCCOC(=O)N[C@@H](CC(C)C)C(=O)N[C@@H](Cc1ccccc1)C(=O)C(=O)NC1CC1` [Compound 20, ((1S)-1-((((1S)-1-Benzyl-2,3-dioxo-3-(cyclopropylamino)propyl)amino)carbonyl)-3-methylbutyl)carbamic acid 14-methoxy-3,6,9,12-tetraoxa-tetradecanyl ester], the Solubility in data set [2] is 16300 µg/mL (≈ 26.1 mM).

As to `COCCOC(=O)N[C@@H](CC(C)C)C(=O)N[C@@H](CC(C)C)C(=O)C(=O)NCCOc1ccccc1` [Compound 21, ((1S)-1-((((1S)-2,3-Dioxo-1-(2-methylpropyl)-3-(2-phenoxyethyl)aminopropyl)amino)carbonyl)-3-methylbutyl)carbamic acid 2-methoxyethyl ester], in data set [1], the IC50 worked out at 80 nM.

As to `COCCOCCOC(=O)N[C@@H](CC(C)C)C(=O)N[C@@H](CC(C)C)C(=O)C(=O)NCCOc1ccccc1` [Compound 22, ((1S)-1-((((1S)-2,3-Dioxo-1-(2-methylpropyl)-3-(2-phenoxyethyl)aminopropyl)amino)carbonyl)-3-methylbutyl)carbamic acid 5-methoxy-3-oxapentyl ester], the IC50 in data set [1] came out at 90 nM.

In the case of `CC(C)C[C@H](NC(=O)OCCc1ccccn1)C(=O)N[C@@H](Cc1ccccc1)C(=O)C(=O)NC1CC1` [Compound 24, ((1S)-1-((((1S)-1-benzyl-3-(cyclopropylamino)-2,3-dioxo-propyl)amino)carbonyl)-3-methylbutyl)carbamic acid 2-(pyridin-2-yl)ethyl ester], the IC50 in data set [1] was determined as 29 nM.

The term IC50 denotes the concentration at which inhibition is half-maximal. Broadly, the Solubility is the dissolved amount per volume that the medium holds. A lower Solubility goes with little dissolved substance. In general, Cmax refers to the maximum level reached in the sampled fluid or tissue.

Values taken from patent US7491705B2, “Alpha-ketoamide derivative, and production method and use thereof” (Senju Pharmaceutical Co., Ltd., priority 2003, dated 2009).
